# Experimental data: patent US20060276436A1, “Farnesyl dibenzodiazepinone formulation” (Ecopia BioSciences, Inc., priority 2005, published 2006)
# “And” between values parts separate entries of the source, which are not always exact repeats. Equal entries are not always repeated. Where two headings read alike, the source gives them in different places. Marks after values point to notes of the source that are not given here.
# How the values were obtained:
# [1] = Pharmacokinetic study using Formulation D11 (IV, IP, SC) and Formulation C (PO); assay type: in vivo, Crl: CD1 mice
# Protocol: Formulation D11, at a final concentration of 6 mg/ml of Compound 1 was used for IV, IP and SC bolus administration. […] Prior to dosing, animals (female Crl: CD1 mice; 6 weeks of age, 22-24 g) were weighed, randomly selected and assigned to the different treatment groups. Compound 1 was administered by the intravenous (IV), subcutaneous (SC), intraperitoneal (IP), or oral (PO) route to the assigned animals. The dosing volume of Compound 1 was 5 mL per kg body weight. Animals were anesthetized prior to bleeding with 5% isoflurane. Blood was collected into microtainer tubes containing the anticoagulant K2EDTA by cardiac puncture from each of 4 animals per bleeding timepoint (2 min, 5 min, 15 min, 30 min, 1 h, 2 h, 4 h and 8 h). Following collection, the samples were centrifuged and the plasma obtained from each sample was recovered and stored frozen (at approximately −80° C.) pending analysis. […] Samples were analysed by LC/MS/MS. Standard curve ranged from 25 to 2000 ng/mL with limit of quantitation (LOQ)≦25 ng/mL and limit of detection (LOD) of 10 ng/mL.
# Plasma values of Compound 1 falling below the limit of quantitation (LOQ) were set to zero. Mean concentration values and standard deviation (SD) were calculated at each timepoints of the pharmacokinetic study (n=4 animals/timepoint). The following pharmacokinetic parameters were calculated: area under the plasma concentration versus time curve from time zero to the last measurable concentration time point (AUC0-t), area under the plasma concentration versus time curve extrapolated to infinity (AUCinf), maximum observed plasma concentration (Cmax), time of maximum plasma concentration (tmax), apparent first-order terminal elimination rate constant (kel), apparent first-order terminal elimination half-life will be calculated as 0.693/kel (t1/2). The systemic clearance (CL) of Compound 1 after intravenous administration was calculated using Dose/AUCinf. Pharmacokinetic parameters were calculated using Kinetica™ 4.1.1 (Innaphase Corporation, Philadelphia, Pa.).
# [2] = Pharmacokinetics of Formulation D11 given CIV for 14 days in rats; assay type: in vivo; conditions: both sexes, Sprague-Dawley, rat, plasma; for concentration at 2 h: read-out: mean plasma concentration 2 hours after the end of infusion; for Vd / AUC / clearance: iv, 14-day CIV
# Protocol: Sprague-Dawley rats received an intravenous continuous infusion over 14 days of Compound 1 at 25 mg/kg/day, 50 mg/kg/day, or 75 mg/kg/day at a rate of 2 mL/kg/h for 14 consecutive days (Formulation D11). Blood was collected from the jugular vein in tubes containing K2 EDTA from 3 rats/sex/group at the following time points: 2, 6, and 12 hours after the start of dosing on Day 1, on Day 2 at 6 hours (approximately 30 hours after the start of dosing), on Days 6 and 10 at 6 hours, and on Day 15, 1 hour prior the end of dosing, and then at 5 min, 15 min, 30 min, 1 h, and 2 h after the end of dosing.
# [3] = Pharmacokinetics of Formulation D11 given CIV for 14 days in monkeys; assay type: in vivo, Cynomolgus monkeys; conditions: for Css / T1/2z / Vd / AUC / clearance: 14-day CIV, Mean (SD); for Css: average between 30 h and 14 days; for T1/2z: end of treatment; for Vd / AUC / clearance: iv
# Protocol: Cynomolgus monkeys received continuous IV infusion over 14 days of Compound 1 at 5 mg/kg/day, 15 mg/kg/day, or 30 mg/kg/day. The drug was infused intravenously (24 hours/day) into the femoral vein at a dose rate of 2 ml/kg/hour for 14 consecutive days. Blood samples were removed from each monkey on Days 1, 2, 6, 10, and 15 of the treatment period. Monkeys were bled by venipuncture and samples were collected into tubes containing K2EDTA. On Day 1, samples were collected at 2, 6, and 12 hours after initiation of treatment. Additional samples were collected at 30 hours after the start of infusion (Day 2). On Days 6 and 10, samples were collected at approximately 6 hours after the bag changes. At the end of the 14 days of infusion, on Day 15, samples were collected at 1 hour prior to cessation of dose administration, and at 5 min, 30 min, 1 h, 2 h, 4 h, 8 h, and 24 h following cessation of dose administration.
# [4] = In vivo toxicity of Compound 1 in monkeys
# [5] = Population pharmacokinetic analysis (NONMEM), monkey; assay type: in vivo; conditions: cynomolgus, plasma, iv, Monkey (CIV); for half-life: monkey; for Vd: read-out: Vss
# Source text: Plasma concentrations of Compound 1 were obtained from mice, rats, and monkeys following intravenous injection or continuous infusion. Compound 1 pharmacokinetic parameters in mice, rats, and monkeys were estimated using population pharmacokinetic analysis, a function of the software program NONMEM™ (version 5). Typical population pharmacokinetic parameters for Compound 1 in humans were extrapolated from allometric equations that were derived from pharmacokinetic parameters estimated in the three animal species. […] A two-compartment model with a first-order elimination from the central compartment adequately described Compound 1 plasma concentration-time profiles following intravenous bolus injection (30 mg/kg) in mice and rats, 7-day continuous infusion in rats (50 to 170 mg/kg/day), and 14-day continuous infusion in monkeys (5 to 30 mg/kg/day).
# [6] = cynomolgus monkey, plasma, intravenous, CIV, 30 mg/kg/day
# [7] = cynomolgus monkey, plasma, 5 mg/kg/day
# [8] = cynomolgus monkey, plasma, 15 mg/kg/day
smiles,measurement,setting,value
"CC(C)=CCC/C(C)=C/CC/C(C)=C/CN1C(=O)c2cccc(O)c2Nc2c(O)cc(O)cc21 [Compound 1, 10-farnesyl-4,6,8-trihydroxy-dibenzodiazepin-11-one]",tissue distribution (in words),"[1]; IV and IP dosing 30 mg/kg, 30 min",well distributed
same,tissue levels (in words),"[1]; SC dosing 30 mg/kg, 30 min, versus IP",significantly lower
same,time plasma concentration maintained at therapeutically relevant levels,"[1]; intraperitoneal and subcutaneous administrations, 30 mg/kg, Formulation D11",over 8 hours
same,concentration at 2 h,"[2]; intravenous, 25 mg/kg/day",28 ng/mL
same,concentration at 2 h,"[2]; intravenous, 50 mg/kg/day",53 ng/mL
same,concentration at 2 h,"[2]; intravenous, 75 mg/kg/day",75 ng/mL
same,concentration at 10 day,"[2]; intravenous, CIV, 50 mg/kg/day",1750 ng/mL and ~3.8 µM
same,Vd,"[2]; 25 mg/kg/day, 25 mg/kg/day, read-out: Vss",15.8 L/kg
same,Vd,"[2]; 25 mg/kg/day, 25 mg/kg/day, read-out: Vz",6.8 L/kg
same,Vd,"[2]; 50 mg/kg/day, 50 mg/kg/day, read-out: Vss",38.8 L/kg
same,Vd,"[2]; 50 mg/kg/day, 50 mg/kg/day, read-out: Vz",3.1 L/kg
same,Vd,"[2]; 75 mg/kg/day, 75 mg/kg/day, read-out: Vss",15.4 L/kg
same,Vd,"[2]; 75 mg/kg/day, 75 mg/kg/day, read-out: Vz",3.1 L/kg
same,AUC,[2]; 25 mg/kg/day,116 µg·h/mL
same,clearance,[2]; 25 mg/kg/day,50 mL/min/kg
same,AUC,[2]; 50 mg/kg/day,396 µg·h/mL
same,clearance,[2]; 50 mg/kg/day,30 mL/min/kg
same,AUC,[2]; 75 mg/kg/day,597 µg·h/mL
same,clearance,[2]; 75 mg/kg/day,30 mL/min/kg
same,AUC increase between groups,[3]; 15 mg/kg/day versus 5 mg/kg/day,3.4 fold
same,AUC increase between groups,[3]; 30 mg/kg/day versus 15 mg/kg/day,4.7 fold
same,Css,[3]; 5 mg/kg/day,358^b (85)^ ng/mL
same,T1/2z,[3]; 5 mg/kg/day,12 (3) h
same,Css,[3]; 15 mg/kg/day,"1,173 (340) ng/mL"
same,T1/2z,[3]; 15 mg/kg/day,8.3 (2.2) h
same,Css,[3]; 30 mg/kg/day,"6,283 (3,650) ng/mL"
same,T1/2z,[3]; 30 mg/kg/day,8.1 (1.0) h
same,concentration at 1 day,[3]; [6],2810 ng/mL and ~6.1 µM
same,concentration at 6 day,[3]; [6],4350 ng/mL and ~9.4 µM
same,concentration at 10 day,[3]; [6],~15 µM and 6860 ng/mL
same,concentration at 15 day,[3]; [6],8560 ng/mL and ~18.5 µM
same,Vd,"[3]; cynomolgus monkey, plasma, 5 mg/kg/day, 5 mg/kg/day, read-out: Vss",7.1 L/kg
same,Vd,"[3]; cynomolgus monkey, plasma, 5 mg/kg/day, 5 mg/kg/day, read-out: Vz",10 L/kg
same,Vd,"[3]; cynomolgus monkey, plasma, 15 mg/kg/day, 15 mg/kg/day, read-out: Vss",3.6 L/kg
same,AUC,[3]; [7],119 µg·h/mL
same,clearance,[3]; [7],10.2 mL/min/kg
same,AUC,[3]; [8],400 µg·h/mL
same,clearance,[3]; [8],9.33 mL/min/kg
same,AUC,"[3]; cynomolgus monkey, plasma, 30 mg/kg/day",1870 µg·h/mL
same,Vd,"[3]; cynomolgus, cynomolgus monkey, plasma, 15 mg/kg/day, 15 mg/kg/day, read-out: Vz",6.8 L/kg
same,Vd,"[3]; cynomolgus, cynomolgus monkey, plasma, 30 mg/kg/day, 30 mg/kg/day, read-out: Vss",10.7 L/kg
same,Vd,"[3]; cynomolgus, cynomolgus monkey, plasma, 30 mg/kg/day, 30 mg/kg/day, read-out: Vz",3.2 L/kg
same,clearance,"[3]; cynomolgus, cynomolgus monkey, plasma, 30 mg/kg/day",4.5 mL/min/kg
same,"acute toxicity, tolerability","[4]; 24-hour CIV, doses of 35 mg/kg and 70 mg/kg, infusion rate 2 mL/kg/hour",well tolerated
same,MTD,"[4]; monkey, in vivo, single bolus intravenous administration",~35 mg/kg
same,half-life,"[5]; population PK, read-out: t1/2, α (converted)",0.308 h
same,half-life,"[5]; population PK, read-out: t1/2, β (converted)",8.05 h
same,clearance,[5]; WT 3.8 Kg,28 mL/min
same,Vd,[5]; WT 3.8 Kg,2.36 L
same,clearance,[5]; population PK,7.35 mL/min/kg
same,Vd,[5]; population PK,0.622 L/kg
